Results from patent publication US20240374746A1, “SIRP-ALPHA ANTIBODIES AND CONJUGATES” (Tallac Therapeutics, Inc., priority 2021, published 2024).

Legend:
[1] = tested on: Ramos-Blue Cells NF-kB/AP-1 Reporter B lymphocytes; assay: Ramos NFkb Reporter Assay; assay type: cell-based, human; conditions: 1 uM to 64 pM CpG, 24 h; compared to 12070 and ODN2006
Protocol: For Ramos NFkb Reporter Assay, Ramos-Blue Cells NF-kB/AP-1 Reporter B lymphocytes were purchased from Invivogen. Cells were grown and maintained in complete DMEM supplemented with 2 mM L-glutamine, 10% FBS, 100 ug/mL Normacin, Pen-Strep, 100 ug/mL Zeocin. Stimulation of the Ramos-Blue cells was performed. Briefly, cells were rinsed in growth medium without antibiotics. Cells were counted and resuspended in fresh complete DMEM without selection antibiotics at a density of 2×10^6 cell/mL. 20 uL of 10 uM CpG 7-7, CpG 12070 and ODN2006 titrated 1:5 were added to a flat-bottom 96-well plate, 180 uL of the cell suspension were added to a final concentration of 1 uM to 64 pM of CpG. Plate was incubated at 37° C. in a 5% CO2 incubator for 24 h. On day of assay, QB reagent and QB buffer were thawed before us. Quanti-Blue solution was prepared by adding 1 mL of QB reagent and […] QB buffer to 98 mL of sterile water in a sterile glass bottle. 180 μL of Quanti-Blue solution was dispensed per well into a new flat-bottom 96-well plate. 20 μL of supernatant from treated Ramos-Blue cells was then added to the 96-well plate. Plate was ten incubated for 6 h. Optical density was measured at OD655 using a plate reader (Molecular Devices), and data was tabulated in GraphPad Prism 9.0.

[2] = tested on: PBMC cells from three different donor lines (D559, D804 and D643); assay: CpG activity on PBMCs from different donors (CD40 expression); assay type: cell-based, human; conditions: PBMCs of donors D559, D804 and D643; compared with 12070
Protocol: Trima residuals were received from Vitalant and diluted 1:2 with Phosphate Buffered Saline (PBS, Gibco). Diluted blood was split into two tubes and underplayed with 15 mL Ficoll-Paque (GE Healthcare). Tubes were centrifuged for 30 minutes at 400×g. PBMCs were collected from the interface, resuspended and washed in FACS buffer (PBS with 0.5% Bovine Serum Albumin (Gibco)). After one wash, PBMCs were resuspended in Complete RPMI (RPMI+10% FBS).
PBMCs were immediately plated onto a 96-well format (500K/well) in Complete RPMI. Five-fold serial dilutions were added to the cells from 1 uM to 64 pM of CpG oligonucleotides at 37° C. under 5% CO2 for 48 hours. Cells were pelleted by centrifugation for five minutes at 400×g and stained at 4° C. in Fixable Viability Dye eFluor 780 (Thermo Fisher) diluted 1:4000 in PBS. Cells were centrifuged and stained at 4° C. in FACS buffer for 30 minutes containing FcR Blocking Reagent (Miltenyi Biotec), anti-CD19, anti-CD20, anti-CD40, anti-HLADR and anti-CD80. Cells were centrifuged and washed twice in FACS buffer and fixed in 0.5% paraformaldehyde. Cells were analyzed on Attune NxT Flow Cytometer (Thermo Fisher), with subsequent data analysis by Flowjo 10.7 (Treestar). Dead cells were excluded by gating on the eFluor 780-negative population. B cells were identified as CD19+CD20+ cells and level of activation marker was assessed by median fluorescent intensity. […]

[3] = tested on: CD14+ monocytes and dendritic cells; assay: CD40 activation in myeloid cells by unconjugated CpG oligonucleotides; assay type: cell-based; conditions: human myeloid cells; 40 nM, 48 hours; compared to the 12070 CpG oligonucleotide
Protocol: Trima residuals were received from Vitalant and diluted 1:3 with Phosphate Buffered Saline (PBS, Gibco). Diluted blood was underplayed with 15 mL Ficoll-Paque (GE Healthcare). Tubes were centrifuged for 30 minutes at 400×g with break off. PBMCs were collected from the interface, resuspended and washed in FACS buffer (PBS with 0.5% Bovine Serum Albumin (Gibco)). After one wash, PBMCs were resuspended in Complete RPMI (RPMI+10% FBS). PBMCs were immediately plated onto a 96-well format (1e6/well) in Complete RPMI. CpG oligonucleotides were incubated with the cells at 40 nM concentration at 37° C. under 5% CO2 for 48 hours. Cells were pelleted by centrifugation for five minutes at 400×g and stained at 4° C. in Fixable Viability Dye eFluor 780 (Thermo Fisher) diluted 1:5000 in PBS. Cells were centrifuged and stained at 4° C. in FACS buffer for 60 minutes containing FcR Blocking Reagent (Miltenyi Biotec), anti-CD14, anti-CD11c, anti-CD3, anti-CD19, anti-CD56, anti-CD16, anti-HLADR, anti-CD40, and anti-CD86 (Thermo Fisher, Biolegend). Cells were centrifuged and washed twice in FACS buffer and fixed in 0.5% paraformaldehyde. Cells were analyzed on Attune NxT Flow Cytometer (Thermo Fisher), with subsequent data analysis by Flowjo 10.7 (Treestar). Dead cells were excluded by gating on the eFluor 780-negative population. […] Levels of activation marker were assessed by median fluorescent intensity.

dendritic cells [4] = assay: Dendritic cell activation (CD40) in human PBMCs; assay type: cell-based; conditions: 24 hours
Protocol: Trima residuals were received from Vitalant and diluted 1:3 with Phosphate Buffered Saline (PBS, Gibco). Diluted blood was underplayed with 15 mL Ficoll-Paque (GE Healthcare). Tubes were centrifuged for 30 minutes at 400×g with break off. PBMCs were collected from the interface, resuspended and washed in FACS buffer (PBS with 0.5% Bovine Serum Albumin (Gibco)). After one wash, PBMCs were resuspended in Complete RPMI (RPMI, 10% FBS, 1× Pen/Strep, 1× Glutamax). PBMCs were immediately plated onto a 96-well format (1e6/well) in Complete RPMI. Three-fold serial dilutions were added to the cells from 300 nM to 0.4 nM for anti-SIRP-α antibody (heavy chain comprising the sequence of SEQ ID NO:66 and light chain comprising the sequence of SEQ ID NO:75) and anti-SIRP-α conjugate (heavy chain comprising the sequence of SEQ ID NO:66 and a light chain comprising the sequence of SEQ ID NO:75, conjugated to CpG oligo 7-7 (SEQ ID NO:35)). Free CpG 7-7 (SEQ ID NO:35) was titrated from 3 μM to 4.12 nM. Cells were incubated at 37° C. under 5% CO2 for 24 hours. […] Cells were analyzed on Attune NxT Flow Cytometer (Thermo Fisher), with subsequent data analysis by Flowjo 10.7 (Treestar). […] Levels of activation marker were assessed by median fluorescent intensity.

dendritic cells [5] = assay: Dendritic cell activation (CD40) in cynomolgus PBMCs; assay type: cell-based; conditions: 48 hours
Protocol: Cynomolgus whole blood was received from BioIVT and diluted 1:3 with Phosphate Buffered Saline (PBS, Gibco). Diluted blood was underplayed with 15 mL 90% Ficoll-Paque (GE Healthcare) in PBS solution. Tubes were centrifuged for 30 minutes at 400×g with break off. Cells were collected from the interface, resuspended and washed in FACS buffer (PBS with 0.5% Bovine Serum Albumin (Gibco)). After one wash, cells were resuspended in ACK lysis buffer (Gibco) for 15 min at room temperature, washed in FACs buffer and centrifuged before repeating. Purified PBMCs were resuspended in Complete RPMI (RPMI, 10% FBS, 1× Pen/Strep, 1× Glutamax). PBMCs were immediately plated onto a 96-well format (0.3e6/well) in Complete RPMI. Three-fold serial dilutions were added to the cells from 1 μM to 1.4 nM of CpG oligonucleotide and 300 nM to 0.4 nM of anti-SIRP-α antibody (heavy chain comprising the sequence of SEQ ID NO:66 and light chain comprising the sequence of SEQ ID NO:75) and the corresponding antibody:CpG conjugate (heavy chain comprising the sequence of SEQ ID NO: 66 and light chain comprising the sequence of SEQ ID NO:75, conjugated to CpG oligo 7-7 (SEQ ID NO:35)) at 37° C. under 5% CO2 for 48 hours. […] Cells were analyzed on Attune NxT Flow Cytometer (Thermo Fisher), with subsequent data analysis by Flowjo 10.7 (Treestar). […] Levels of activation marker were assessed by median fluorescent intensity.

[6] = tested on: THP-1-Dual hTLR9 cell line, interferon regulatory factor (IRF) pathway; assay: THP-1-Dual hTLR9 reporter assay, IRF pathway (secreted Lucia luciferase); assay type: cell-based; conditions: 24 hours; F(ab′)2 anti-human IgG Fcγ cross-linking agent; read-out: EC50 of IRF induction
Protocol: THP-1-Dual hTLR9 cell line (thpd-nfis, Invivogen) was derived from human THP-1 monocytes engineered to overexpress the human TLR9 (hTLR9) gene and featuring two reporter genes allowing for simultaneous assessment of the NF-kB pathway by monitoring the activity of an inducible secreted embryonic alkaline phosphatase (SEAP), and the interferon regulatory factor (IRF) pathway by monitoring the activity of an inducible secreted Lucia luciferase. Briefly, 250,000 cells in 100 uL of growth media (RPMI 1640 (Gibco), 2 mM L-glutamine (Gibco), 25 mM HEPES (Gibco), 10% FBS (Gibco), 100 U/mL penicillin (Gibco), 100 ug/mL streptomycin (Gibco), 100 ug/mL Normacin (Invivogen) were plated in 96-well flat-bottom plates (Nunc). An 8 step 2-fold serial dilution of anti-SIRP-α antibody or anti-SIRP-α antibody conjugate was added to cells in 50 μL for a final concentration range of 200 nM-1.56 nM. 10 μg/mL of a F(ab′)2 fragment goat anti-human, IgG Fcγ fragment specific (Jackson Immuno Research) was added in 50 μL of growth media as a cross-linking agent. Cells were incubated at 37 C for 24 hours. NF-kB and IRF induction from supernatant was detected according to manufacturer's protocol. EC50 values were derived using three-parameter […] regression curve fir in Prism 9 (GraphPad), and data were presented as fold-over media control. […]

CpG 7-7 (DNA TCGTCGTGTCGTTT; modified_base 1 OTHER; 5-Bromo-2'-deoxyuridine; modified_base 13..14 OTHER; 2'-O-Methyl-Thymidine; modified_base 1..4 OTHER; phosphorothioate linkages; misc_feature 4^5 phosphotriester linker-PEG24-NH2; modified_base 5..9 OTHER; modified_base 9^10 OTHER; phosphorodithioate linkage; modified_base 10..14 OTHER; misc_feature 14 3' spacer C3)
activity in NFkb reporter assay [1]: significantly higher activity
activity as observed by CD40 expression [2]: higher activities
activation of CD40 [3]: higher activation of CD40
surface marker expression (CD40) on dendritic cells (dendritic cells [4]): potent TLR9 agonist with targeted dendritic cell activation across species
surface marker expression (CD40) on dendritic cells (dendritic cells [5]): potent TLR9 agonist with targeted dendritic cell activation across species
EC50 [6]: 84 nM
